# Test results reported in patent publication US20260226037A1, “MICROTUBULE TARGETING AGENTS” (ARIEL SCIENTIFIC INNOVATIONS LTD., priority 2022, published 2026).
# Where two headings read alike, the source gives them in different places. Where a SMILES comes first, the peptide text is derived from it. [ ]: non-standard residue; d: D form. The star is where a group is joined. Dolaproine = CO[C@@H]([C@@H]1CCCN1)[C@@H](C)C(=O)O; Dil = CC[C@H](C)[C@H](NC)[C@@H](CC(=O)O)OC; X1 = C[C@@H](N*)[C@@H](O)c1ccccc1; NMeV = CN[C@H](C(=O)O)C(C)C
# Tests used:
# RPMI-DOX40 cells = test: XTT cytotoxicity, RPMI-DOX40; format: cell-based; settings: for IC50: RPMI-DOX40, multiple myeloma, P-gp overexpression, read-out: IC50; for IC50 ratio between resistant and non-resistant cells: RPMI-DOX40 / RPMI 8226
# Method: (§1) The cytotoxic activity of the novel family was evaluated against various tumor cells, including myeloma cells, acute lymphoblastic leukemia cells, acute monocytic leukemia cells, chronic myelogenous leukemia cells, pancreatic cancer cells, breast cancer cells, uterine sarcoma cells, cervix adenocarcinoma cells, ovary cancer cells, melanoma cells, osteosarcoma cells, prostate cancer cells, lung cancer cells, neuroblastoma cells and colorectal adenocarcinoma cells by XTT assay.
# MM1.R cells = test: XTT cytotoxicity, MM1.R; format: cell-based; settings: for IC50: MM1.R, multiple myeloma, dexamethasone resistant, read-out: IC50; for IC50 ratio between resistant and non-resistant cells: MM1.R / MM1.S
# Method: as §1
# N6/ADR cells = test: XTT cytotoxicity, N6/ADR; format: cell-based; settings: for IC50 ratio between resistant and non-resistant cells: N6/ADR / NALM6; for sensitivity to Pgp glycoprotein overexpression: N6/ADR vs NALM6 dose response; for IC50: N6/ADR, acute lymphoblastic leukemia, P-gp overexpression, read-out: IC50
# Method: as §1
# (§2) Most tubulin-binding anticancer drugs currently used in the clinic are substrates for Pgp effux pump. […] The inventors tested the viability of NALM6 acute lymphoblastic leukemia cell line (ALL) and its corresponding doxorubicin resistant N6/ADR cell line that overexpress Pgp glycoprotein and has cross-resistance to vincristine.
# A2780ADR cells = test: XTT cytotoxicity, A2780ADR; format: cell-based; settings: for IC50 ratio between resistant and non-resistant cells: A2780ADR / A2780; for IC50: A2780ADR, ovarian carcinoma, resistant
# Method: as §1
# A2780 cells = test: XTT cytotoxicity, A2780; format: cell-based; settings: A2780, ovarian carcinoma, non-resistant
# Method: as §1
# NCI-H69 VCR/R cells = test: XTT cytotoxicity, NCI-H69 VCR/R; format: cell-based; settings: for IC50 ratio between resistant and non-resistant cells: NCI-H69 VCR/R / NCI-H69; for IC50: NCI-H69 VCR/R, vincristine resistant
# Method: as §1
# NCI-H69 cells = test: XTT cytotoxicity, NCI-H69; format: cell-based; settings: NCI-H69, small cell lung carcinoma, non-resistant
# Method: as §1
# RPMI 8226 cells = test: XTT cytotoxicity, RPMI 8226; format: cell-based; settings: RPMI 8226, multiple myeloma, non-resistant, read-out: IC50
# Method: as §1
# MM1.S cells = test: XTT cytotoxicity, MM1.S; format: cell-based; settings: multiple myeloma, non-resistant, read-out: IC50
# Method: as §1
# RPMI-LR5 cells = test: XTT cytotoxicity, RPMI-LR5; format: cell-based; settings: for IC50: RPMI-LR5, multiple myeloma, melphalan resistant, read-out: IC50; for IC50 ratio between resistant and non-resistant cells: RPMI-LR5 / RPMI 8226
# Method: as §1
# NALM6 cells = test: XTT cytotoxicity, NALM6; format: cell-based; settings: NALM6, acute lymphoblastic leukemia, non-resistant, read-out: IC50
# Method: as §1, §2
# MES-SA cells = test: XTT cytotoxicity, MES-SA; format: cell-based; settings: poorly differentiated uterine sarcoma, non-resistant
# Method: as §1
# MES-SA/DX5 cells = test: XTT cytotoxicity, MES-SA/DX5; format: cell-based; settings: for IC50: MES-SA/DX5, uterine sarcoma, P-gp overexpression; for IC50 ratio between resistant and non-resistant cells: MES-SA/DX5 / MES-SA; for effectiveness in subline overexpressing PgP: MES-SA/DX5 vs MES-SA
# Method: as §1
# purified tubulin = test: Tubulin polymerization, cell-free assay; format: biochemical; settings: tubulin 2.00 mg/mL; 1, 15 and 30 μM; 37° C., 100 min; vs vehicle
# Method: The effect of the compounds on their ability to inhibit tubulin polymerization, was tested against a vehicle control by evaluating polymerization of purified tubulin in a cell-free assay where tubulin (2.00 mg/mL) was exposed to vehicle control or 1, 15 and 30 μM of the compounds (n=2). Polymerizations were tracked by an increase in fluorescence excitation wavelength is 340-360 nm and emission wavelength at 410-460 nm. Fluorescence was monitored at 37° C. every 30 sec for 100 min.
# MCF7 cells = test: XTT cytotoxicity, MCF7; format: cell-based; settings: Homo sapiens; MCF7, breast adenocarcinoma, non-resistant
# Method: as §1
# RPMI-MR20 cells = test: XTT cytotoxicity, RPMI-MR20; format: cell-based; settings: for IC50: RPMI-MR20, mitoxantrone resistant, read-out: IC50; for IC50 ratio between resistant and non-resistant cells: RPMI-MR20 / RPMI 8226
# Method: as §1
# MCF7-VP cells = test: XTT cytotoxicity, MCF7-VP; format: cell-based; settings: for IC50: Homo sapiens, MCF7-VP, breast adenocarcinoma, MRP overexpression; for IC50 ratio between resistant and non-resistant cells: MCF7-VP / MCF7
# Method: as §1
# [1] = system: colchicine binding site on tubulin protein; test: EBI competition assay, RPMI-8226 cells; format: cell-based; settings: for prevention of covalent binding of EBI to the colchicine binding site: RPMI-8226 living cells
# RPMI8226 cells = test: Cell cycle distribution by flow cytometry; format: cell-based; settings: 6 hours; IC50, IC50x2.5 and IC50x5 concentrations
# Method: Cell cycle arrest is a shared consequence of MTAs treatment. The effects of cell cycle distribution were determined in RPMI8226 cells treated for 6 and 18 hours with a range of concentrations of the molecules. The cells were stained with propidium iodide and cell cycle distribution was measured using a cytoFLEX flow cytometer.
SMILES,IC50 (RPMI-DOX40 cells) [µM],IC50 ratio between resistant and non-resistant cells (RPMI-DOX40 cells),IC50 ratio between resistant and non-resistant cells (N6/ADR cells),IC50 (N6/ADR cells) [µM],IC50 (RPMI-LR5 cells) [µM],IC50 ratio between resistant and non-resistant cells (RPMI-LR5 cells),IC50 ratio between resistant and non-resistant cells (MES-SA/DX5 cells),rate of tubulin polymerization (purified tubulin),IC50 (MCF7 cells) [µM],IC50 ratio between resistant and non-resistant cells (MM1.R cells),IC50 (MM1.R cells; MM.1R) [µM],IC50 (RPMI-MR20 cells) [µM],IC50 ratio between resistant and non-resistant cells (RPMI-MR20 cells),IC50 (RPMI 8226 cells; Homo sapiens) [µM],IC50 (MM1.S cells; Homo sapiens) [µM],IC50 (MCF7-VP cells) [µM],IC50 ratio between resistant and non-resistant cells (MCF7-VP cells),"IC50 (NALM6 cells; Homo sapiens, NALM-6) [µM]",IC50 (MES-SA cells; Homo sapiens) [µM],IC50 (MES-SA/DX5 cells; Homo sapiens) [µM],further results
"CC[C@H](C)[C@@H]([C@@H](CC(=O)N1CCC[C@H]1[C@H](OC)[C@@H](C)C(=O)N[C@H](C)[C@@H](O)c1ccccc1)OC)N(C)C(=O)[C@@H](NC(=O)[C@@H](NC)C(C)C)C(C)C [MMAE, reference compound] (H-[NMeV]V[Dil][Dolaproine]-X1)",> 0.015,>6.000,2.667,0.0008,> 0.015,>6.000,165.037,–,–,–,–,–,–,–,–,–,–,–,–,–,IC50 (MM1.R cells): < 0.0025 µM; sensitivity to Pgp glycoprotein overexpression (N6/ADR cells): sensitive to PgP; IC50 ratio between resistant and non-resistant cells (A2780ADR cells): 31.250; IC50 (A2780ADR cells): 0.025 µM; IC50 (A2780 cells): 0.0008 µM; IC50 ratio between resistant and non-resistant cells (NCI-H69 VCR/R cells): 0.667; IC50 (NCI-H69 VCR/R cells): 0.002 µM; IC50 (NCI-H69 cells): 0.003 µM; IC50 (RPMI 8226 cells): < 0.0025 µM; IC50 (MM1.S cells): < 0.0025 µM; IC50 (NALM6 cells): 0.0003 µM; IC50 (MES-SA cells): 0.016 µM; IC50 (MES-SA/DX5 cells): 2.74 µM; effectiveness in subline overexpressing PgP (MES-SA/DX5 cells): less effective in the subline overexpressing PgP
"Cc1c(C(=O)OCCCCO)[nH]c2c1C(=O)CC(c1ncco1)C2 (centres unmarked) [SMS096, 4-hydroxybutyl 3-methyl-6-(oxazol-2-yl)-4-oxo-4,5,6,7-tetrahydro-1H-indole-2-carboxylate]",1.18,1.081,0.087,0.054,1.13,1.031,1.153,inhibited the rate of tubulin polymerization in a concentration-dependent manner,7.84,1.447,1.08,> 1.8,>1.647,1.09,0.748,5.74,0.732,0.624,1.24,1.43,"relative affinity for the colchicine binding site ([1]; RPMI-8226 cells, EBI competition): higher affinity than SMS001, SMS182, SMS088 and SMS229; prevention of covalent binding of EBI to the colchicine binding site [1]: prevented the covalent binding of EBI to the colchicine binding site; cell cycle arrest (RPMI8226 cells): cell cycle arrest in G2M phase"
"Cc1c(C(=O)OC2CCCC2)[nH]c2c1C(=O)CC(c1ncco1)C2 (centres unmarked) [SMS101, cyclopentyl 3-methyl-6-(oxazol-2-yl)-4-oxo-4,5,6,7-tetrahydro-1H-indole-2-carboxylate]",0.077,0.856,0.875,0.042,0.073,0.811,1.145,inhibited the rate of tubulin polymerization in a concentration-dependent manner,11.9,3.953,0.51,0.099,1.100,0.09,0.129,0.351,0.029,0.048,0.186,0.213,prevention of covalent binding of EBI to the colchicine binding site [1]: prevented the covalent binding of EBI to the colchicine binding site; cell cycle arrest (RPMI8226 cells): cell cycle arrest in G2M phase
"Cc1c(C(=O)OCCCCO)oc2c1C(=O)CC(c1ncco1)C2 (centres unmarked) [SMS229, 4-hydroxybutyl-3-methyl-6-(oxazol-2-yl)-4-oxo-4,5,6,7-tetrahydrobenzofuran-2-carboxylate]",0.933,1.155,1.136,0.67,0.958,1.186,0.700,inhibited the rate of tubulin polymerization in a concentration-dependent manner,33.3,>0.779,> 1.6,1.55,1.916,0.808,2.05,12,0.360,0.59,4.56,3.19,prevention of covalent binding of EBI to the colchicine binding site [1]: prevented the covalent binding of EBI to the colchicine binding site
"CC[C@]1(O)C[C@H]2CN(CCc3c([nH]c4ccccc34)[C@@](C(=O)OC)(c3cc4c(cc3OC)N(C=O)[C@H]3[C@@](O)(C(=O)OC)[C@H](OC(C)=O)[C@]5(CC)C=CCN6CC[C@]43[C@@H]65)C2)C1 [Vincristine, reference compound]",> 0.01,>5.263,10.909,0.012,> 0.004,>2.105,3.684,–,0.078,1.063,0.0017,0.0003,0.158,0.0019,0.0016,0.22,2.821,0.0011,0.999,3.68,sensitivity to Pgp glycoprotein overexpression (N6/ADR cells): sensitive to PgP; IC50 ratio between resistant and non-resistant cells (A2780ADR cells): 77.000; resistance of cells to treatment (A2780ADR cells; A2780ADR ovary carcinoma cells): resistant to vincristine; IC50 (A2780ADR cells; A2780 ADR): 0.231 µM; IC50 (A2780 cells; Homo sapiens): 0.003 µM; IC50 (NCI-H69 VCR/R cells; Homo sapiens): > 1 µM; IC50 ratio between resistant and non-resistant cells (NCI-H69 VCR/R cells): >41.667; resistance of cells to treatment (NCI-H69 VCR/R cells; NCI-H69 VCR/R lung carcinoma cells): resistant to vincristine; IC50 (NCI-H69 cells; Homo sapiens): 0.024 µM; effectiveness in subline overexpressing PgP (MES-SA/DX5 cells): less effective in the subline overexpressing PgP
